From ChEMBL document CHEMBL4270672, “Synthesis and Biological Evaluation of Fused Tricyclic Heterocycle Piperazine (Piperidine) Derivatives As Potential Multireceptor Atypical Antipsychotics” (J Med Chem, 2018)

How the values were obtained:
[1] = biological target: D(2) dopamine receptor (Rattus norvegicus, UniProt P61169)
[2] = biological target: T1, 5-hydroxytryptamine receptor 1A (Rattus norvegicus, UniProt P19327)
T1 sequence (P19327 whole entry): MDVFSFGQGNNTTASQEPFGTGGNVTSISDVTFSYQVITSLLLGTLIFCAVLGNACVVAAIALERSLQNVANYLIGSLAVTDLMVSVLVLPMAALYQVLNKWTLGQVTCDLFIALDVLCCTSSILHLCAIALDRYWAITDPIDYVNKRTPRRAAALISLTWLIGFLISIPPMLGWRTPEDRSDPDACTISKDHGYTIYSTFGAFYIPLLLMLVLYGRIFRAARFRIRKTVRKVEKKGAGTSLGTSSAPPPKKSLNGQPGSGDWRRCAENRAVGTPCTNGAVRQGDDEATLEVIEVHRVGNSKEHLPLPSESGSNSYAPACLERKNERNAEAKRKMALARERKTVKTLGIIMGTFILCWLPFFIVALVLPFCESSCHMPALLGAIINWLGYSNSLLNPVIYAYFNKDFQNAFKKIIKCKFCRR

[3] = biological target: 5-hydroxytryptamine receptor 2A (Rattus norvegicus, UniProt P14842); test: Displacement of [3H]-ketanserine from serotonin 5-HT2A receptor in rat brain cortex homogenates incubated for 30 mins by liquid scintillation counting
5-hydroxytryptamine receptor 2A, sequence (P14842 whole entry): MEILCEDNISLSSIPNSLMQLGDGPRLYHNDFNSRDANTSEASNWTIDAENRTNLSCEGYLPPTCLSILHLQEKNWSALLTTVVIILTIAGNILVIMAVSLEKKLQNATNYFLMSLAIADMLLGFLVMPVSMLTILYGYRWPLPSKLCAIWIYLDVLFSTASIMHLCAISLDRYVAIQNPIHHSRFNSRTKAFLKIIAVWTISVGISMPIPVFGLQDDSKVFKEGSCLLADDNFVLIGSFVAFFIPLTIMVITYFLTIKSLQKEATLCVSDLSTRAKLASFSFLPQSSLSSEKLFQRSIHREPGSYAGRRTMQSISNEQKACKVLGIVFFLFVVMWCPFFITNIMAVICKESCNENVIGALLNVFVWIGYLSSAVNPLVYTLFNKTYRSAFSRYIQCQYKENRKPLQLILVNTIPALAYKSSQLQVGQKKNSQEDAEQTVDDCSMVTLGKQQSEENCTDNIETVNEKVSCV

D(2) dopamine receptor, sequence (P61169 whole entry): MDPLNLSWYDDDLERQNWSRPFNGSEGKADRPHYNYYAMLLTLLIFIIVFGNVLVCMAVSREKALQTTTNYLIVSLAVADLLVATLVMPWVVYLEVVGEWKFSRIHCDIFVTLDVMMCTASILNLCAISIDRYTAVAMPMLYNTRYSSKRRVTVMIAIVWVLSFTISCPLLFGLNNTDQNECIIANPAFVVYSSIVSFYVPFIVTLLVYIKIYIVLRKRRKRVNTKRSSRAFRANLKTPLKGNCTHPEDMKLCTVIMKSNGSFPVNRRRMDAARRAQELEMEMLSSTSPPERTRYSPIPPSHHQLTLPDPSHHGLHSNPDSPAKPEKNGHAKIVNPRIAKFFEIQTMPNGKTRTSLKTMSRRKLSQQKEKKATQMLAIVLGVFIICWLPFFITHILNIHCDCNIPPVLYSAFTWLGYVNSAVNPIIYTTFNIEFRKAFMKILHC

Row | Compound | Ki [1] | Ki [2] | Ki [3]
1 | O=C1CCc2cc(CCCCCN3CCC(c4noc5cc(F)ccc45)CC3)cc3c2N1CC3 | 43.2 nM | 54 nM | 58.3 nM
2 | O=C(CCCN1CCC(c2noc3cc(F)ccc23)CC1)c1cc2c3c(c1)CCC(=O)N3CCC2 | 18.2 nM | 32.9 nM | 22.3 nM
3 | O=C(CCN1CCN(c2ccccn2)CC1)c1cc2c3c(c1)CCC(=O)N3CCC2 | 1660 nM | 1660 nM | 675 nM
4 | O=C1CCc2cc(C(O)CCN3CCC(c4noc5cc(F)ccc45)CC3)cc3c2N1CC3 (centres undefined) | 19.6 nM | 29.3 nM | 59.6 nM
5 | O=C(CCN1CCN(c2cccc(Cl)c2Cl)CC1)c1cc2c3c(c1)CCC(=O)N3CCC2 | 1220 nM | 269 nM | 207 nM
6 | O=C(CCCN1CCN(c2nsc3ccccc23)CC1)c1cc2c3c(c1)CCC(=O)N3CCC2 | 91.4 nM | 153 nM | 87.9 nM
7 | O=C(CCN1CCN(c2ccccc2)CC1)c1cc2c3c(c1)CCC(=O)N3CCC2 | 1760 nM | 1860 nM | 752 nM
8 | O=C1CCc2cc(CCCN3CCN(c4cccc(Cl)c4Cl)CC3)cc3c2N1CCC3 | 582 nM | 196 nM | 186 nM
9 | O=C(CCCN1CCC(c2noc3cc(F)ccc23)CC1)c1cc2c3c(c1F)CCC(=O)N3CC2 | 19.2 nM | 25.3 nM | 17.9 nM
10 | N#Cc1ccc(N2CCN(CCC(=O)c3cc4c5c(c3)CCN5C(=O)CC4)CC2)c(F)c1 | 574 nM | 474 nM | 388 nM
11 | O=C(CCN1CCN(c2ccc(Cl)cc2)CC1)c1cc2c3c(c1)CCC(=O)N3CCC2 | > 2000 nM | 1630 nM | 720 nM
12 | O=C(CCN1CCN(c2nsc3ccccc23)CC1)c1cc2c3c(c1)CCN3C(=O)CC2 | 88.8 nM | 54.6 nM | 68.4 nM
13 | O=C(CCCN1CCN(c2cccc(Cl)c2Cl)CC1)c1cc2c3c(c1)CCC(=O)N3CCC2 | 283 nM | 149 nM | 79.8 nM
14 | O=C1CCc2cc(CCCCN3CCN(c4cccc(Cl)c4Cl)CC3)cc3c2N1CCC3 | 394 nM | 194 nM | 97.8 nM
15 | COc1ccccc1N1CCN(CCC(=O)c2cc3c4c(c2)CCC(=O)N4CCC3)CC1 | > 2000 nM | 965 nM | 178 nM
16 | O=C1CCc2cc(CCCN3CCC(c4noc5cc(F)ccc45)CC3)cc3c2N1CC3 | 46.5 nM | 38.7 nM | 29.3 nM
17 | O=C(CCN1CCN(c2nsc3ccccc23)CC1)c1cc2c3c(c1)CCC(=O)N3CCC2 | 182 nM | 129 nM | 72 nM
18 | Cc1cccc(N2CCN(CCC(=O)c3cc4c5c(c3)CCN5C(=O)CC4)CC2)c1C | 189 nM | 84.6 nM | 175 nM
19 | O=C(CCCN1CCC(c2noc3cc(F)ccc23)CC1)c1cc2c3c(c1F)CCN3C(=O)CC2 | 18.3 nM | 19.1 nM | 21.9 nM

Row | Compound | Ki [1] | Ki [2] | Ki [3]
20 | O=C(CCCN1CCN(c2cccc(Cl)c2Cl)CC1)c1cc2c3c(c1)CCN3C(=O)CC2 | 104 nM | 53.9 nM | 37.8 nM
21 | O=C(CN1CCC(c2noc3cc(F)ccc23)CC1)c1cc2c3c(c1)CCC(=O)N3CCC2 | 900 nM | > 2000 nM | 765 nM
22 | O=C1CCc2cc(CCCN3CCC(c4noc5cc(F)ccc45)CC3)cc3c2N1CCC3 | 44.2 nM | 58.6 nM | 73.9 nM
23 | Cc1cccc(N2CCN(CCC(=O)c3cc4c5c(c3)CCC(=O)N5CCC4)CC2)c1C | 1850 nM | 196 nM | 207 nM
24 | O=C(CCN1CCN(c2cccc(Cl)c2Cl)CC1)c1cc2c3c(c1)CCN3C(=O)CC2 | 188 nM | 81.6 nM | 92.5 nM
25 | O=C1CCc2cc(CCCCN3CCN(c4nsc5ccccc45)CC3)cc3c2N1CCC3 | 154 nM | 98 nM | 83.9 nM
26 | CC1CC(=O)N2CCCc3cc(CCCCN4CCC(c5noc6cc(F)ccc56)CC4)cc1c32 (centres undefined) | 85.8 nM | 82.9 nM | 83.4 nM
27 | O=C(CCCCN1CCC(c2noc3cc(F)ccc23)CC1)c1cc2c3c(c1)CCC(=O)N3CCC2 | 31.8 nM | 32.6 nM | 19.1 nM
28 | O=C(CCN1CCN(c2ncccn2)CC1)c1cc2c3c(c1)CCC(=O)N3CCC2 | > 2000 nM | 1970 nM | 557 nM
29 | O=C(CCCCCN1CCC(c2noc3cc(F)ccc23)CC1)c1cc2c3c(c1)CCN3C(=O)CC2 | 89.1 nM | 168 nM | 34.7 nM
30 | O=C(CCN1CCC(c2noc3cc(F)ccc23)CC1)c1cc2c3c(c1)CCC(=O)N3CCC2 | 58.2 nM | 62.9 nM | 52.3 nM
31 | CC1CC(=O)N2CCCc3cc(C(=O)CCCN4CCC(c5noc6cc(F)ccc56)CC4)cc1c32 (centres undefined) | 62.1 nM | 42.3 nM | 32.2 nM
32 | O=C(CCCN1CCN(c2nsc3ccccc23)CC1)c1cc2c3c(c1)CCN3C(=O)CC2 | 49.9 nM | 31.8 nM | 50.3 nM
33 | Cc1cccc(N2CCN(CCCC(=O)c3cc4c5c(c3)CCC(=O)N5CCC4)CC2)c1C | 185 nM | 169 nM | 58.9 nM
34 | O=C(CCN1CCC(c2noc3cc(F)ccc23)CC1)c1cc2c3c(c1)CCN3C(=O)CC2 | 19.7 nM | 16.4 nM | 17.4 nM
35 | O=C1CCc2cc(C(O)CCN3CCC(c4noc5cc(F)ccc45)CC3)cc3c2N1CCC3 (centres undefined) | 28.4 nM | 19.6 nM | 19.9 nM
36 | O=C(CCN1CCC(c2nc3ccccc3s2)CC1)c1cc2c3c(c1)CCC(=O)N3CCC2 | 861 nM | 392 nM | 173 nM
37 | O=C1CCc2cc(C(O)CCCN3CCC(c4noc5cc(F)ccc45)CC3)cc3c2N1CCC3 (centres undefined) | 29.7 nM | 79.1 nM | 24.2 nM
38 | O=C1CCc2cc(CCCCN3CCC(c4noc5cc(F)ccc45)CC3)cc3c2N1CCC3 | 74.3 nM | 69.1 nM | 59.3 nM
